Laboratory results taken from article PMC5819394 (Proceedings of the National Academy of Sciences of the …, 2018).
Like-named read-outs stand apart in the source and are kept apart here.

Tested on: GenL
Assay type: biochemical, Micromonospora echinospora

Km (SAM as methyl donor, integrated Michaelis-Menten fit) [µM] | SMILES | Km [µM]
 | CN[C@@H]1[C@@H](O)[C@@H](O[C@@H]2[C@@H](O)[C@H](O[C@H]3O[C@H](CN)CC[C@H]3N)[C@@H](N)C[C@H]2N)OC[C@]1(C)O [C1a] | 347 ± 86
77.8 ± 8 | CN[C@@H]1[C@@H](O)[C@@H](O[C@@H]2[C@@H](O)[C@H](O[C@H]3O[C@H]([C@@H](C)N)CC[C@H]3N)[C@@H](N)C[C@H]2N)OC[C@]1(C)O [C2] | 
